Measurements as given in the supplement of paper PMC13380429.

Key:
Conditions in all cases: 72 h
Caco-2 [1] = assay: cell viability relative to DMSO; higher = less toxic
Calu-3 [2] = assay: as above
HepG2 [3] = assay: as above
U2OS [4] = assay: as above
Vero E6 [5] = assay: as above
Caco-2 [6] = assay: relative viability EC50 (midpoint between 100% and the lowest measured viability); higher = less toxic
Calu-3 [7] = assay: as above
HepG2 [8] = assay: as above
U2OS [9] = assay: as above
Vero E6 [10] = assay: as above
Caco-2 [11] = assay: drug sensitivity score (DSS) for viability; higher = more toxic; extreme values may be limits of the assay
Calu-3 [12] = assay: as above
HepG2 [13] = assay: as above
U2OS [14] = assay: as above
Vero E6 [15] = assay: as above

SMILES | cell viability (Caco-2 [1]; 1 nM) | cell viability (Caco-2 [1]; 10 nM) | cell viability (Caco-2 [1]; 100 nM) | cell viability (Caco-2 [1]; 1000 nM) | cell viability (Caco-2 [1]; 10000 nM) | cell viability (Calu-3 [2]; 1 nM) | cell viability (Calu-3 [2]; 10 nM) | cell viability (Calu-3 [2]; 100 nM) | cell viability (Calu-3 [2]; 1000 nM) | cell viability (Calu-3 [2]; 10000 nM) | cell viability (HepG2 [3]; 1 nM) | cell viability (HepG2 [3]; 10 nM) | cell viability (HepG2 [3]; 100 nM) | cell viability (HepG2 [3]; 1000 nM) | cell viability (HepG2 [3]; 10000 nM) | cell viability (U2OS [4]; 1 nM) | cell viability (U2OS [4]; 10 nM) | cell viability (U2OS [4]; 100 nM) | cell viability (U2OS [4]; 1000 nM) | cell viability (U2OS [4]; 10000 nM) | cell viability (Vero E6 [5]; 1 nM) | cell viability (Vero E6 [5]; 10 nM) | cell viability (Vero E6 [5]; 100 nM) | cell viability (Vero E6 [5]; 1000 nM) | cell viability (Vero E6 [5]; 10000 nM) | relative viability EC50 (Caco-2 [6]) | relative viability EC50 (Calu-3 [7]) | relative viability EC50 (HepG2 [8]) | relative viability EC50 (U2OS [9]) | relative viability EC50 (Vero E6 [10]) | drug sensitivity score (Caco-2 [11]) | drug sensitivity score (Calu-3 [12]) | drug sensitivity score (HepG2 [13]) | drug sensitivity score (U2OS [14]) | drug sensitivity score (Vero E6 [15])
NC1CCN(c2c(F)cc3c(=O)c(C(=O)O)cn(C4CC4)c3c2Cl)C1 (stereo not given) [clinafloxacin] | 98.7% | 100% | 89.7% | 106% | 108% | 95.5% | 94.4% | 94.7% | 97.6% | 99.5% | 115% | 97% | 108% | 97.3% | 109% | 95% | 102% | 97.5% | 102% | 102% | 102% | 97% | 95% | 98.7% | 104% | > 10 µM | > 10 µM | > 10 µM | > 10 µM | > 10 µM | 0 | 0 | 0 | 0 | 0
COc1cccc2c1C(=O)c1c(O)c3c(c(O)c1C2=O)C[C@@](O)(C(C)=O)C[C@@H]3O[C@H]1C[C@H](N)[C@H](O)[C@H](C)O1 [daunorubicin] | 86.3% | 93.4% | 74.6% | 29.8% | 28% | 99.7% | 96% | 69.3% | 29.4% | 16.1% | 108% | 75.8% | 43.3% | 2% | 0.2% | 96.6% | 103% | 80.9% | 2.4% | 0.1% | 93.7% | 97.8% | 87.9% | 54.3% | 4.6% | 0.145 µM | 0.177 µM | 0.059 µM | 0.187 µM | 0.963 µM | 15.8 | 16.9 | 25.7 | 20.7 | 10.8
COc1cc2c(cc1OC)-c1c(C)c3ccc(OC)c(OC)c3c[n+]1CC2 [dehydrocorydaline] | 97.6% | 100% | 92.5% | 101% | 88.8% | 96.4% | 105% | 91.2% | 102% | 100% | 98.6% | 99.4% | 95.1% | 94.2% | 95.7% | 99.1% | 101% | 98.6% | 100% | 97.1% | 95.9% | 100% | 99.6% | 94.8% | 98.5% | > 10 µM | > 10 µM | > 10 µM | > 10 µM | > 10 µM | 0 | 0 | 0 | 0 | 0
COc1ccc(-c2cc(C(F)F)nn2-c2ccc(S(N)(=O)=O)cc2)cc1F [deracoxib] | 99.9% | 93.5% | 98.1% | 98.6% | 102% | 100% | 93.8% | 104% | 93.3% | 109% | 96.4% | 112% | 90.5% | 89.7% | 86.5% | 91.3% | 90.2% | 93.7% | 88.7% | 107% | 97.3% | 99.7% | 94.2% | 101% | 98.8% | > 10 µM | > 10 µM | > 10 µM | > 10 µM | > 10 µM | 0 | 0 | 1.5 | 0 | 0
CC(C)(C)C(=O)OCC(=O)[C@H]1CC[C@H]2[C@@H]3CCC4=CC(=O)CC[C@]4(C)[C@H]3CC[C@]12C [desoxycorticosterone-pivalate] | 104% | 97% | 103% | 99.7% | 95.3% | 98.9% | 90.9% | 98.6% | 89.2% | 101% | 97% | 98.8% | 95.7% | 89% | 98.2% | 101% | 98.1% | 99.1% | 99.4% | 97.9% | 102% | 99% | 101% | 99.8% | 101% | > 10 µM | > 10 µM | > 10 µM | > 10 µM | > 10 µM | 0 | 0 | 0 | 0 | 0
CN(C)CCOC(c1ccccc1)c1ccccc1.Cn1c(=O)c2[nH]c(Cl)nc2n(C)c1=O [dimenhydrinate] | 96.3% | 88.1% | 88.1% | 104% | 99.5% | 103% | 94.4% | 97.2% | 99.2% | 98% | 95.7% | 103% | 110% | 107% | 106% | 102% | 96.5% | 98% | 102% | 106% | 93.8% | 99.7% | 96.2% | 100% | 103% | > 10 µM | > 10 µM | > 10 µM | > 10 µM | > 10 µM | 0 | 0 | 0 | 0 | 0
O=C(Nc1ccccc1)OCC(CN1CCCCC1)OC(=O)Nc1ccccc1 (stereo not given) [diperodon] | 87.6% | 89.7% | 87.6% | 83% | 95.5% | 112% | 122% | 93.3% | 104% | 98.8% | 100% | 97.8% | 96.1% | 110% | 103% | 95.5% | 93.6% | 94.5% | 91.8% | 94.4% | 90.9% | 95.5% | 87% | 96.6% | 100% | > 10 µM | > 10 µM | > 10 µM | > 10 µM | > 10 µM | 0 | 0 | 0 | 0 | 0
CC(CCc1ccc(O)cc1)NCCc1ccc(O)c(O)c1 (stereo not given) [dobutamine] | 106% | 99.2% | 99.3% | 95% | 104% | 90.2% | 79.6% | 92.8% | 96.9% | 105% | 106% | 110% | 93.1% | 96.7% | 93.3% | 101% | 96.6% | 97.7% | 102% | 98% | 106% | 103% | 97.1% | 98.5% | 103% | > 10 µM | > 10 µM | > 10 µM | > 10 µM | > 10 µM | 0 | 0 | 0 | 0 | 0
CCOC(=O)/C=C(C)/C=C/C=C(C)/C=C/c1c(C)cc(OC)c(C)c1C [etretinate] | 100% | 107% | 92.2% | 111% | 95.3% | 101% | 101% | 97.5% | 106% | 109% | 94.2% | 99.4% | 103% | 102% | 102% | 96% | 101% | 98.1% | 100% | 99.5% | 97.9% | 96.6% | 93% | 98.5% | 108% | > 10 µM | > 10 µM | > 10 µM | > 10 µM | > 10 µM | 0 | 0 | 0 | 0 | 0
CC(C)c1cc(-c2n[nH]c(=O)n2-c2ccc3c(ccn3C)c2)c(O)cc1O [ganetespib] | 99.9% | 95.4% | 37.4% | 35.2% | 29.3% | 91.5% | 95.9% | 47.8% | 35.7% | 32.5% | 97.7% | 56.6% | 2.3% | 1.2% | 1.1% | 98.4% | 96.7% | 3.7% | 3.4% | 1.5% | 101% | 107% | 46.3% | 25.9% | 29.1% | 0.0369 µM | 0.0478 µM | 0.0114 µM | 0.0307 µM | 0.0685 µM | 21.3 | 19.1 | 35.3 | 30.2 | 19.9
CO/N=C1\CN(c2nc3c(cc2F)c(=O)c(C(=O)O)cn3C2CC2)CC1CN (stereo not given) [gemifloxacin] | 92.2% | 114% | 105% | 96.9% | 95.9% | 99.6% | 98.5% | 98.4% | 98.5% | 105% | 105% | 108% | 105% | 100% | 86.8% | 97% | 102% | 97.3% | 100% | 94.3% | 103% | 102% | 102% | 102% | 95.7% | > 10 µM | > 10 µM | > 10 µM | > 10 µM | > 10 µM | 0 | 0 | 0.1 | 0 | 0
Cc1cc2c(C(C)C)c(O)c(O)c(C=O)c2c(O)c1-c1c(C)cc2c(C(C)C)c(O)c(O)c(C=O)c2c1O [gossypol] | 101% | 104% | 107% | 90.9% | 0.8% | 100% | 100% | 103% | 103% | 36.9% | 102% | 96.3% | 95.3% | 96.1% | 9.6% | 96.8% | 101% | 98.6% | 95.9% | 11.9% | 100% | 98.1% | 97.6% | 98.6% | 13.1% | 2.41 µM | 3.4 µM | 2.84 µM | 2.81 µM | 3.05 µM | 7 | 3.2 | 5.6 | 5.5 | 5
CC(CNC1CCCCC1)OC(=O)c1ccccc1 (stereo not given) [hexylcaine] | 99% | 88.5% | 98% | 105% | 102% | 104% | 107% | 95.2% | 103% | 95.5% | 106% | 102% | 91% | 88.5% | 102% | 103% | 101% | 99.1% | 103% | 104% | 97.3% | 102% | 96.8% | 93.1% | 105% | > 10 µM | > 10 µM | > 10 µM | > 10 µM | > 10 µM | 0 | 0 | 0 | 0 | 0
C=CCc1ccc(O)c(-c2ccc(O)c(CC=C)c2)c1 [honokiol] | 93.8% | 94.3% | 102% | 90.1% | 90.9% | 104% | 111% | 94.4% | 96.6% | 97% | 108% | 109% | 109% | 93.2% | 88.4% | 94.4% | 95.1% | 99.3% | 99.4% | 88.9% | 95.7% | 98.9% | 97.7% | 95.4% | 107% | > 10 µM | > 10 µM | > 10 µM | > 10 µM | > 10 µM | 0 | 0 | 0.2 | 0 | 0
